The structures appear in SMILES notation.

As usually defined, the EC50 is the concentration giving half of the maximal effect. A high value points to weaker potency.

Glycogen synthase kinase-3 beta, sequence (P49841 whole entry): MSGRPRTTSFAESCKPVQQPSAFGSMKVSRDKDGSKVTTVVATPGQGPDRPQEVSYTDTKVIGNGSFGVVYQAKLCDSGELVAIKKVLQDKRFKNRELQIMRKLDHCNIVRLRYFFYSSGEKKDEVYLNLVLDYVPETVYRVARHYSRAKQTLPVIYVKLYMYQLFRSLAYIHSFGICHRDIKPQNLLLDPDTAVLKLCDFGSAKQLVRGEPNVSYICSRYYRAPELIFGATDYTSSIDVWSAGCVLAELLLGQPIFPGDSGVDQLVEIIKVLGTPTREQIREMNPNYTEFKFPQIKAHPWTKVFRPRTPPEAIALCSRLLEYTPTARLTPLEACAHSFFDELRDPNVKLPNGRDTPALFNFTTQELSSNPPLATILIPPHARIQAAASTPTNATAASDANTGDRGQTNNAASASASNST

This assay addresses Glycogen synthase kinase-3 beta (Homo sapiens, UniProt P49841). Put plainly: GSK3beta kinase inhibitor potency, dose response, biochemical, luminescence, cell-free homogeneous, retest (AID 434954).
In the case of `Cc1cccc(NC(=O)CSc2nc(O)c(C#N)c(-c3ccccc3)n2)c1C` [SMR000161905], the EC50 was more than 300 µM.
Next, `COc1ccc(NC(=O)NC2CCCc3ccccc32)cc1` (configuration not stated) [SMR000678136]: more than 300 µM; `CC[n+]1c(/C=C/N(C)c2ccccc2)oc2ccc(F)cc21`: more than 300 µM; `O=C1NC(c2cccs2)Nc2sc3c(c21)CCCC3` (configuration not stated) [2-thiophen-2-yl-2,3,5,6,7,8-hexahydro-1H-[1]benzothiolo[2,3-d]pyrimidin-4-one]: more than 300 µM.
Take `O=C(NN=Cc1ccco1)c1ccn[nH]1` [SMR000279368]: the EC50 is more than 300 µM.
Next, `COCCCNc1nc(N)c([N+](=O)[O-])c(NC2CCCCC2)n1` [MLS001165157]: 0.86 µM; `COc1ccc2nc(C)cc(N3CCN(c4ccccc4)CC3)c2c1` [SMR000595708]: 29.5 µM.
Compound `COc1cc(/C=C/c2nc3ccc([N+](=O)[O-])cc3s2)ccc1OCC(=O)O` [SMR000365317] yielded an EC50 of more than 300 µM.
`CCOC(=O)c1cnc2ccc(F)cc2c1Nc1ccc2c(c1)OCCO2` [SMR000198647] returned an EC50 of more than 300 µM.
Regarding `O=c1cc(-c2ccccc2Cl)oc2c(Br)ccc(O)c12` [8-bromo-2-(2-chlorophenyl)-5-hydroxy-1-benzopyran-4-one], the EC50 was more than 300 µM.
`O=C(CS(=O)(=O)c1ccccc1)c1cc2ccccc2oc1=O` [3-[2-(phenylsulfonyl)ethanoyl]chromen-2-one]: the EC50 is more than 300 µM.
For `O=C1Nc2ccc([N+](=O)[O-])cc2C1=NNC1CS(=O)(=O)CC1O` (configuration not stated) [SMR000368316], the midpoint of the response, the EC50, lay at 23 µM.
Take `COC(=O)C(C)Sc1ccc2nnc(-c3ccc(F)cc3)n2n1` (configuration not stated) [MLS000093331]: the EC50 is 11.9 µM.
In turn, `Cn1nc2c3ccccc3n(Cc3ccc(F)cc3)c2nc1=S` registered a half-maximal effective concentration (EC50) of more than 300 µM.
`Cc1c(C(=O)OCCOc2ccccc2)[nH]c2c1C(=O)CCC2` [MLS000090901] returned an EC50 of 10.9 µM.
On to `O=[N+]([O-])c1ccc(-n2nnnc2-c2ccccc2)c([N+](=O)[O-])c1` [1-{2,4-bisnitrophenyl}-5-phenyl-1H-tetraazole], for which the EC50 is more than 300 µM.
The compound `c1ccc(Nc2ncnc3[nH]ncc23)cc1` returned an EC50 of 45.5 µM.
As for `COc1ccc(C2C3=C(CC(C)(C)CC3=O)Nc3c2c(=O)nc2nc(C)[nH]n32)cc1` (configuration not stated) [SMR000035838], the EC50 was more than 300 µM.
Regarding `O=c1cccc2oc(-c3ccccc3Cl)cc(O)c1-2` [2-(2-chlorophenyl)-5-hydroxy-1-benzopyran-4-one], the EC50 is more than 300 µM.
Compound `O=C(Nc1cccc(-c2cnc3ccccc3n2)c1)c1ccccc1` [N-[3-(2-quinoxalinyl)phenyl]benzamide] returned an EC50 of more than 300 µM.
Turning to `Cc1c(O)ccc(C(=O)CN2CCN(c3ccc(F)cc3)CC2)c1O` [1-(2,4-dihydroxy-3-methylphenyl)-2-[4-(4-fluorophenyl)-1-piperazinyl]ethanone], the EC50 was more than 300 µM.
Next, `CCCCc1cc(=O)oc2cc(C)c(CN3CCCC3)c(O)c12` [4-butyl-7-methyl-5-oxidanyl-6-(pyrrolidin-1-ylmethyl)chromen-2-one]: more than 300 µM.
For `NS(=O)(=O)c1cc(C(=O)NNC2=c3ccccc3=NC2=O)ccc1Cl` [2-chloro-5-[[(2-oxoindol-3-yl)amino]carbamoyl]benzenesulfonamide], the EC50 was found to be 43.9 µM.
For the compound `CC(C)CCSc1nnc(N)s1` [MLS000861787], the EC50 was more than 300 µM.
Consider `CSc1nc(-c2cccs2)c(C#N)c(=O)[nH]1` [MLS000849828], for which the EC50 was more than 300 µM.
`COc1cccc(C2Nc3ccccc3N=C3CC(C)(C)CC(=O)C32)c1` (configuration not stated) [MLS001207292] came in with an EC50 of more than 300 µM.
On to `CC(=O)N1CCc2c(sc(NC(=O)CCS(=O)(=O)c3ccc(C)cc3)c2C(N)=O)C1` [6-ethanoyl-2-[3-(4-methylphenyl)sulfonylpropanoylamino]-5,7-dihydro-4H-thieno[2,3-c]pyridine-3-carboxamide], for which the EC50 turned out to be 26.2 µM.
`CCOC(=O)C1(Cc2cccc(F)c2)CCN(Cc2cn(CC)nc2C)CC1` [1-[(1-ethyl-3-methyl-4-pyrazolyl)methyl]-4-[(3-fluorophenyl)methyl]-4-piperidinecarboxylic acid ethyl ester]: the concentration giving a half-maximal response (EC50) is more than 300 µM.
As for `CCOC(=O)c1cnc2ccc(C)cc2c1Nc1ccc(N2CCOCC2)cc1` [6-methyl-4-(4-morpholinoanilino)quinoline-3-carboxylic acid ethyl ester], the EC50 was more than 300 µM.
Compound `Nc1nc(NCCN2CCOCC2)nc(NCc2ccccc2)c1[N+](=O)[O-]` [SMR000434816] returned an EC50 of 26.3 µM.
Consider `COc1cc([CH+][N-]NC(=O)c2ccc(O)cc2)ccc1Oc1ccc([N+](=O)[O-])cn1` [4-hydroxy-N-[[3-methoxy-4-(5-nitropyridin-2-yl)oxyphenyl]methylideneamino]benzamide;propan-2-ol], for which the EC50 was more than 300 µM.
`C[O+]=N[CH-]c1ccc(Oc2ccc(C)cc2)c([N+](=O)[O-])c1` [4-(4-methylphenoxy)-3-nitrobenzenecarbaldehyde O-methyloxime] yielded an EC50 of more than 300 µM.
For `COC1=CC(CN=Nc2ccc([N+](=O)[O-])cn2)C=C(OC)C1=O` [MLS001173549], the EC50 was 5.41 µM. In other words, the single-digit micromolar range.
`Nc1nonc1-n1nnc(C(=O)NN=Cc2ccc(Br)cc2)c1CN1CCOCC1` [SMR000646504] displayed an EC50 of more than 300 µM.
Take `Nc1nc(NCCOCCO)nc(NCc2ccccc2)c1[N+](=O)[O-]` [MLS001213400]: the EC50 stood at 21.7 µM. This counts as double-digit micromolar.
`COc1cccc(N=Nc2c(N)[nH][nH]c2=O)c1` [SMR000231776]: the EC50 was 19.9 µM.
Compound `O=C1NC(=O)N(CCc2ccc(F)cc2)C(=O)C1=CNN1CCCCC1` [1-[2-(4-Fluoro-phenyl)-ethyl]-5-[1-(piperidin-1-ylamino)-meth-(Z)-ylidene]-pyrimidine-2,4,6-trione] came in with an EC50 of more than 300 µM.
With `Oc1ccc(-c2nncn2-c2ccccc2)cc1` [SMR000274861], the EC50 is 7.15 µM.
For `Cc1ccnc(NC(=O)CCC(=O)N(CC(=O)NCc2ccccc2)Cc2cccs2)c1`, the EC50 was 16.9 µM.
The compound `O=C1CC(N2CCC(c3nc4ccccc4s3)CC2)C(=O)N1` (configuration not stated) [MLS000063725] returned an EC50 of more than 300 µM.
`C[O+]=N[CH-]c1ccc(N2CCOCC2)c([N+](=O)[O-])c1` [N-methoxy-1-(4-morpholin-4-yl-3-nitro-phenyl)methanimine] returned an EC50 of more than 300 µM.
`COCCN(CC(=O)NCc1ccc(F)cc1)C(=O)CCC(=O)Nc1ccccn1` showed an EC50 of more than 300 µM.
As for `Nc1nonc1-n1nnc(C(=O)NN=Cc2ccoc2)c1CSc1ccc(Cl)cc1` [1-(4-amino-1,2,5-oxadiazol-3-yl)-5-[(4-chlorophenyl)sulfanylmethyl]-N-(furan-3-ylmethylideneamino)triazole-4-carboxamide], the figure is more than 300 µM; as for `O=C(NCc1ccccn1)c1ccc(Cn2cc(Br)cn2)o1` [SMR000073000], more than 300 µM; as for `c1cncc(-c2nc(NCc3cccs3)c3ccccc3n2)c1`, more than 300 µM.
The compound `O=C1N=C(NCc2ccccc2)SC1=Cc1ccc(O)cc1` [SMR000217101] gave an EC50 of 3.04 µM.
Compound `COc1ccccc1Oc1coc2c(CN(C)C)c(O)ccc2c1=O` [8-[(dimethylamino)methyl]-7-hydroxy-3-(2-methoxyphenoxy)chromen-4-one] had an EC50 of more than 300 µM.

The values are drawn from BindingDB's records for doi:10.7270/Q2TX3CTT (Broad Institute, 2010).
